Experimental data from patent US12139768B2, “Polymerase chain reaction primers and probes for Mycobacterium tuberculosis” (Rutgers, The State University of New Jersey, priority 2014, dated 2024).
Read-outs that look alike come from different tables or passages of the source.

Columns and labels:
[1] = tested on: eis promoter region; format: binding; conditions: clinical DNA
[2] = tested on: rrs gene; format: binding; conditions: clinical DNA
[3] = tested on: M.tb isolates; format: cell-based, Mycobacterium tuberculosis
[4] = tested on: M.tb isolates; format: cell-based, Mycobacterium tuberculosis; remark: listed apart in the source
[5] = eis promoter G(−10)A + NM (mixed)
[6] = rrs-A1401G + eis C(−14)T double mutant

Molecule: ctcgcGGCATATGCCACAGTCGGATTCTcTGACgcgag (DNA CTCGCGGCATATGCCACAGTCGGATTCTCTGACGCGAG; molecular beacon, labels not given here, further chemistry not given here) [eis-2, SMB probe targeted against the eis promoter region]
- Mean Tm ([1]; No mutation (NM), wild type): 69 °C
- Mean Tm ([1]; No mutation (NM), wild type, listed as eis2): 69.00 °C
- Mean Tm ([1]; eis promoter C(−8) deletion): 63.10 °C
- dTm (Tm difference of mutant from wild type) ([1]; eis promoter C(−8) deletion): 5.90 °C
- Mean Tm ([1]; eis promoter C(−12)T): 62.92 °C
- dTm (Tm difference of mutant from wild type) ([1]; eis promoter C(−12)T): 6.08 °C
- Mean Tm ([1]; eis promoter C(−14)T): 62.60 °C
- dTm (Tm difference of mutant from wild type) ([1]; eis promoter C(−14)T): 6.40 °C
- Mean Tm ([1]; eis promoter G(−10)A): 64.70 °C
- dTm (Tm difference of mutant from wild type) ([1]; eis promoter G(−10)A): 4.30 °C
- dTm (Tm difference of mutant from wild type) [1, 5]: 4.20 °C
- Mean Tm ([1]; eis promoter G(−10)A + NM (mixed, double Tm peak for eis2)): 64.80-69.10 °C
- Mean Tm ([1]; eis promoter G(−37)T): 69.10 °C
- dTm (Tm difference of mutant from wild type) ([1]; eis promoter G(−37)T): −0.10 °C
- Mean Tm ([1]; rrs gene A1401G): 69.10 °C
- dTm (Tm difference of mutant from wild type) ([1]; rrs gene A1401G): −0.10 °C
- Mean Tm ([1]; rrs gene A1401G + NM (mixed)): 69.10 °C
- dTm (Tm difference of mutant from wild type) ([1]; rrs gene A1401G + NM (mixed)): −0.10 °C
- Mean Tm ([1]; rrs gene C1402T + NM (mixed)): 69.20 °C
- dTm (Tm difference of mutant from wild type) ([1]; rrs gene C1402T + NM (mixed)): −0.20 °C
- Mean Tm [1, 6]: 62.50 °C
- dTm (Tm difference of mutant from wild type) [1, 6]: 6.50 °C

Molecule: cacgACCGCCCGTCACGTCATGAAAGTCGGTcgtg (DNA CACGACCGCCCGTCACGTCATGAAAGTCGGTCGTG; molecular beacon, labels not given here, further chemistry not given here) [rrs-1400, SMB probe targeted against the rrs gene]
- Mean Tm ([2]; No mutation (NM), wild type): 70.1 °C
- Mean Tm ([2]; eis promoter C(−8) deletion): 70.10 °C
- dTm (Tm difference of mutant from wild type) ([2]; eis promoter C(−8) deletion): 0.00 °C
- Mean Tm ([2]; eis promoter C(−12)T): 70.15 °C
- dTm (Tm difference of mutant from wild type) ([2]; eis promoter C(−12)T): −0.05 °C
- Mean Tm ([2]; eis promoter C(−14)T): 70.10 °C
- dTm (Tm difference of mutant from wild type) ([2]; eis promoter C(−14)T): 0.00 °C
- Mean Tm ([2]; eis promoter G(−10)A): 70.20 °C
- dTm (Tm difference of mutant from wild type) ([2]; eis promoter G(−10)A): −0.10 °C
- Mean Tm [2, 5]: 70.20 °C
- dTm (Tm difference of mutant from wild type) [2, 5]: −0.10 °C
- Mean Tm ([2]; eis promoter G(−37)T): 70.20 °C
- dTm (Tm difference of mutant from wild type) ([2]; eis promoter G(−37)T): −0.10 °C
- Mean Tm ([2]; rrs gene A1401G): 66.20 °C
- dTm (Tm difference of mutant from wild type) ([2]; rrs gene A1401G): 3.9 °C
- dTm (Tm difference of mutant from wild type) ([2]; rrs gene A1401G + NM (mixed)): 3.90 °C
- Mean Tm ([2]; rrs gene A1401G + NM (mixed, double Tm peak)): 66.20-70.10 °C
- dTm (Tm difference of mutant from wild type) ([2]; rrs gene C1402T + NM (mixed)): 5.6 °C
- Mean Tm ([2]; rrs gene C1402T + NM (mixed, double Tm peak)): 64.50-70.10 °C
- Mean Tm [2, 6]: 66.30 °C
- dTm (Tm difference of mutant from wild type) [2, 6]: 3.80 °C

Molecule: NC[C@H]1O[C@H](O[C@H]2[C@H](O)[C@@H](O[C@H]3O[C@H](CO)[C@@H](O)[C@H](N)[C@H]3O)[C@H](N)C[C@@H]2N)[C@H](O)[C@@H](O)[C@@H]1O [KAN, Kanamycin]
- Susceptibility (MGIT) [3]: R and S
- Total number of isolates Susceptible (MGIT) [3]: 447
- Susceptibility (LJ) [4]: S and R
- Total number of isolates Susceptible (LJ) [4]: 497

Molecule: NCC[C@H](O)C(=O)N[C@@H]1C[C@H](N)[C@@H](O[C@H]2O[C@H](CN)[C@@H](O)[C@H](O)[C@H]2O)[C@H](O)[C@H]1O[C@H]1O[C@H](CO)[C@@H](O)[C@H](N)[C@H]1O [AMK, Amikacin]
- Susceptibility (LJ) [4]: S and R
- Total number of isolates Susceptible (LJ) [4]: 513
